Experimental findings from ChEMBL document CHEMBL4699602, “Stapled and Xenopus Glucagon-Like Peptide 1 (GLP-1)-Based Dual GLP-1/Gastrin Receptor Agonists with Improved Metabolic Benefits in Rodent Models of Obesity and Diabetes” (J Med Chem, 2020) are described below.

Structures are written as SMILES. Where a SMILES comes first, the peptide text is derived from it.

The target of the assay is Glucagon-like peptide 1 receptor (Homo sapiens, UniProt P43220). Nature of the assay: Agonist activity at human GLP-1R expressed in HEK293 cells assessed as stimulation of cAMP accumulation incubated for 20 mins. It is filed as functional, cell-based.
Glucagon-like peptide 1 receptor, sequence (P43220 whole entry): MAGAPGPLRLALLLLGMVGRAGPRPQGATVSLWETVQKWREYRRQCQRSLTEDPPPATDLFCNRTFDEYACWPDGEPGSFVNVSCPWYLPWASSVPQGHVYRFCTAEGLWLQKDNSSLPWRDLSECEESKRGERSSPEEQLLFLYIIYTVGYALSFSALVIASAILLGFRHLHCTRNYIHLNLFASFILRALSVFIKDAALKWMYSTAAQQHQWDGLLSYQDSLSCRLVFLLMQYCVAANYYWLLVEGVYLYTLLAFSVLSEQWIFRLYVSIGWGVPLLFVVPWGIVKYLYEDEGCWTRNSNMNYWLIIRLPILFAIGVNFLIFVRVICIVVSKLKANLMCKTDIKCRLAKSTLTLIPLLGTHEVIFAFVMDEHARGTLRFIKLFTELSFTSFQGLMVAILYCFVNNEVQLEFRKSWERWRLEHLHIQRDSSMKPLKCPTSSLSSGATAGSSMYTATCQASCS
Consider `CC[C@H](C)[C@H](NC(=O)[C@H](CC(C)C)NC(=O)[C@H](Cc1c[nH]c2ccccc12)NC(=O)[C@H](CCC(=O)O)NC(=O)[C@@H](NC(=O)[C@H](Cc1ccccc1)NC(=O)[C@H](CCC(=O)O)NC(=O)[C@H](CCCCN)NC(=O)[C@H](C)NC(=O)[C@H](CS)NC(=O)[C@H](CCC(=O)O)NC(=O)[C@H](CCC(=O)O)NC(=O)[C@H](CCC(=O)O)NC(=O)[C@H](CC(C)C)NC(=O)[C@H](Cc1ccc(O)cc1)NC(=O)[C@H](CCC(=O)O)NC(=O)[C@H](CS)NC(=O)[C@@H](NC(=O)[C@H](CC(=O)O)NC(=O)[C@H](CC(N)=O)NC(=O)[C@@H](NC(=O)[C@H](Cc1ccc(O)cc1)NC(=O)[C@@H](NC(=O)CNC(=O)[C@H](CCC(=O)O)NC(=O)C(C)(C)NC(=O)[C@@H](N)Cc1c[nH]cn1)[C@@H](C)O)[C@@H](C)O)C(C)C)[C@@H](C)CC)C(=O)N[C@@H](CCCCN)C(=O)NCC(=O)N[C@@H](CCCCN)C(=O)N1CCC[C@H]1C(=O)N[C@@H](CO)C(=O)N[C@@H](CO)C(=O)NCC(=O)N[C@@H](C)C(=O)N1CCC[C@H]1C(=O)N1CCC[C@H]1C(=O)N1CCC[C@H]1C(=O)N[C@@H](CO)C(N)=O` (HELM PEPTIDE1{H.[Aib].E.G.T.Y.T.N.D.V.C.E.Y.L.E.E.E.C.A.K.E.F.I.E.W.L.I.K.G.K.P.S.S.G.A.P.P.P.S.[am]}$$$$V2.0), for which the concentration for a half-maximal effect (EC50) worked out at 0.15 nM.

For `CC[C@H](C)[C@H](NC(=O)[C@H](CC(C)C)NC(=O)[C@H](Cc1c[nH]c2ccccc12)NC(=O)[C@H](CCC(=O)O)NC(=O)[C@@H](NC(=O)[C@H](Cc1ccccc1)NC(=O)[C@H](CCC(=O)O)NC(=O)[C@H](CCCCN)NC(=O)[C@H](C)NC(=O)[C@H](CS)NC(=O)[C@H](CCC(=O)O)NC(=O)[C@H](CCC(=O)O)NC(=O)[C@H](CCC(=O)O)NC(=O)[C@H](CC(C)C)NC(=O)[C@H](Cc1ccc(O)cc1)NC(=O)[C@H](CCC(=O)O)NC(=O)[C@H](CS)NC(=O)[C@@H](NC(=O)[C@H](CC(=O)O)NC(=O)[C@H](CC(N)=O)NC(=O)[C@@H](NC(=O)[C@H](Cc1ccc(O)cc1)NC(=O)[C@@H](NC(=O)CNC(=O)[C@H](CCC(=O)O)NC(=O)C(C)(C)NC(=O)[C@@H](N)Cc1c[nH]cn1)[C@@H](C)O)[C@@H](C)O)C(C)C)[C@@H](C)CC)C(=O)N[C@@H](CCCCN)C(=O)NCC(=O)N[C@@H](CCCCN)C(N)=O` (HELM PEPTIDE1{H.[Aib].E.G.T.Y.T.N.D.V.C.E.Y.L.E.E.E.C.A.K.E.F.I.E.W.L.I.K.G.K.[am]}$$$$V2.0), the half-maximal effective concentration (EC50) was 0.32 nM.

For the molecule `CC[C@H](C)[C@H](NC(=O)[C@H](CC(C)C)NC(=O)[C@H](Cc1c[nH]c2ccccc12)NC(=O)[C@H](CCC(=O)O)NC(=O)[C@@H](NC(=O)[C@H](Cc1ccccc1)NC(=O)[C@H](CCC(=O)O)NC(=O)[C@H](CCCCN)NC(=O)[C@H](CS)NC(=O)[C@H](C)NC(=O)[C@H](CCC(=O)O)NC(=O)[C@H](CCC(=O)O)NC(=O)[C@H](CCC(=O)O)NC(=O)[C@H](CC(C)C)NC(=O)[C@H](Cc1ccc(O)cc1)NC(=O)[C@H](CS)NC(=O)[C@@H](NC(=O)[C@@H](NC(=O)[C@H](CC(=O)O)NC(=O)[C@H](CC(N)=O)NC(=O)[C@@H](NC(=O)[C@H](Cc1ccc(O)cc1)NC(=O)[C@@H](NC(=O)CNC(=O)[C@H](CCC(=O)O)NC(=O)C(C)(C)NC(=O)[C@@H](N)Cc1c[nH]cn1)[C@@H](C)O)[C@@H](C)O)C(C)C)[C@@H](C)O)[C@@H](C)CC)C(=O)N[C@@H](CCCCN)C(=O)NCC(=O)N[C@@H](CCCCN)C(=O)N1CCC[C@H]1C(=O)N[C@@H](CO)C(=O)N[C@@H](CO)C(=O)NCC(=O)N[C@@H](C)C(=O)N1CCC[C@H]1C(=O)N1CCC[C@H]1C(=O)N1CCC[C@H]1C(=O)N[C@@H](CO)C(N)=O` (HELM PEPTIDE1{H.[Aib].E.G.T.Y.T.N.D.V.T.C.Y.L.E.E.E.A.C.K.E.F.I.E.W.L.I.K.G.K.P.S.S.G.A.P.P.P.S.[am]}$$$$V2.0), the EC50 came to 0.12 nM.
